Legend:
Assay in all cases: relative viability (nuclei count vs DMSO), 5 days (fraction); higher = more cells survive
A-427 = tested on: A-427
Summary of the method: (§1)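 Relative viability is defined as nuclei in treated wells over nuclei in vehicle wells. Duplicate plates were run and medians reported. Lung cancer cell lines in 1536-well plates were dosed by pin tool one day after seeding, with one drug or with a fixed anchor-drug dose plus five library-drug doses (not always all listed) in √10 steps, and nuclei were counted after 5 days.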

COR-L 105 = tested on: COR-L 105
Summary of the method: as §1

EPLC-272H = tested on: EPLC-272H
Summary of the method: as §1

HCC-366 = tested on: HCC-366
Summary of the method: as §1

HCC-78 = tested on: HCC-78
Summary of the method: as §1

HOP-62 = tested on: HOP-62
Summary of the method: as §1

LC-2-ad = tested on: LC-2-ad
Summary of the method: as §1

LCLC-97TM1 = tested on: LCLC-97TM1
Summary of the method: as §1

LU99A = tested on: LU99A
Summary of the method: as §1

LXF-289 = tested on: LXF-289
Summary of the method: as §1

NCI-H1755 = tested on: NCI-H1755
Summary of the method: as §1

NCI-H1792 = tested on: NCI-H1792
Summary of the method: as §1

NCI-H1793 = tested on: NCI-H1793
Summary of the method: as §1

NCI-H1915 = tested on: NCI-H1915
Summary of the method: as §1

NCI-H1944 = tested on: NCI-H1944
Summary of the method: as §1

NCI-H1975 = tested on: NCI-H1975
Summary of the method: as §1

NCI-H2085 = tested on: NCI-H2085
Summary of the method: as §1

NCI-H2170 = tested on: NCI-H2170
Summary of the method: as §1

NCI-H358 = tested on: NCI-H358
Summary of the method: as §1

NCI-H460 = tested on: NCI-H460
Summary of the method: as §1

SK-LU-1 = tested on: SK-LU-1
Summary of the method: as §1

UMC-11 = tested on: UMC-11
Summary of the method: as §1

C=C1C(=O)O[C@@H](CCCCCCCC)[C@@H]1C(=O)O [C-75] + CS(=O)(=O)CCNCc1ccc(-c2ccc3ncnc(Nc4ccc(OCc5cccc(F)c5)c(Cl)c4)c3c2)o1 [Lapatinib] (partner 2 µM)
relative viability (A-427; first compound 0.08 µM): 1.01
relative viability (A-427; first compound 0.253 µM): 1.07
relative viability (A-427; first compound 0.8 µM): 1.02
relative viability (A-427; first compound 2.53 µM): 0.997
relative viability (A-427; first compound 8 µM): 1.01
relative viability (COR-L 105; first compound 0.08 µM): 0.299
relative viability (COR-L 105; first compound 0.253 µM): 0.315
relative viability (COR-L 105; first compound 0.8 µM): 0.374
relative viability (COR-L 105; first compound 2.53 µM): 0.309
relative viability (COR-L 105; first compound 8 µM): 0.414
relative viability (EPLC-272H; first compound 0.08 µM): 0.974
relative viability (EPLC-272H; first compound 0.253 µM): 0.805
relative viability (EPLC-272H; first compound 0.8 µM): 1.01
relative viability (EPLC-272H; first compound 2.53 µM): 0.592
relative viability (EPLC-272H; first compound 8 µM): 0.789
relative viability (HCC-366; first compound 0.08 µM): 1.04
relative viability (HCC-366; first compound 0.253 µM): 1.19
relative viability (HCC-366; first compound 0.8 µM): 1
relative viability (HCC-366; first compound 8 µM): 0.872
relative viability (HCC-78; first compound 0.08 µM): 1.05
relative viability (HCC-78; first compound 0.253 µM): 0.6
relative viability (HCC-78; first compound 0.8 µM): 0.464
relative viability (HCC-78; first compound 2.53 µM): 0.348
relative viability (HCC-78; first compound 8 µM): 0.756
relative viability (HOP-62; first compound 0.08 µM): 1.07
relative viability (HOP-62; first compound 0.253 µM): 1.09
relative viability (HOP-62; first compound 0.8 µM): 0.955
relative viability (HOP-62; first compound 2.53 µM): 0.713
relative viability (HOP-62; first compound 8 µM): 0.817
relative viability (LC-2-ad; first compound 0.08 µM): 0.982
relative viability (LC-2-ad; first compound 0.253 µM): 0.919
relative viability (LC-2-ad; first compound 0.8 µM): 0.898
relative viability (LC-2-ad; first compound 8 µM): 1.01
relative viability (LCLC-97TM1; first compound 0.08 µM): 0.684
relative viability (LCLC-97TM1; first compound 0.253 µM): 1.67
relative viability (LCLC-97TM1; first compound 0.8 µM): 0.881
relative viability (LCLC-97TM1; first compound 2.53 µM): 0.555
relative viability (LCLC-97TM1; first compound 8 µM): 0.543
relative viability (LU99A; first compound 0.08 µM): 1.1
relative viability (LU99A; first compound 0.253 µM): 0.959
relative viability (LU99A; first compound 0.8 µM): 0.808
relative viability (LU99A; first compound 2.53 µM): 0.949
relative viability (LU99A; first compound 8 µM): 0.87
relative viability (LXF-289; first compound 0.08 µM): 0.842
relative viability (LXF-289; first compound 0.253 µM): 0.872
relative viability (LXF-289; first compound 0.8 µM): 0.895
relative viability (LXF-289; first compound 2.53 µM): 0.925
relative viability (LXF-289; first compound 8 µM): 0.908
relative viability (NCI-H1755; first compound 0.08 µM): 1.01
relative viability (NCI-H1755; first compound 0.253 µM): 0.946
relative viability (NCI-H1755; first compound 0.8 µM): 0.958
relative viability (NCI-H1755; first compound 2.53 µM): 0.743
relative viability (NCI-H1755; first compound 8 µM): 1.06
relative viability (NCI-H1792; first compound 0.08 µM): 0.865
relative viability (NCI-H1792; first compound 0.253 µM): 0.835
relative viability (NCI-H1792; first compound 0.8 µM): 0.675
relative viability (NCI-H1792; first compound 2.53 µM): 0.68
relative viability (NCI-H1792; first compound 8 µM): 0.798
relative viability (NCI-H1793; first compound 0.08 µM): 0.635
relative viability (NCI-H1793; first compound 0.253 µM): 0.785
relative viability (NCI-H1793; first compound 0.8 µM): 0.493
relative viability (NCI-H1793; first compound 2.53 µM): 0.483
relative viability (NCI-H1793; first compound 8 µM): 0.713
relative viability (NCI-H1915; first compound 0.08 µM): 0.952
relative viability (NCI-H1915; first compound 0.253 µM): 0.945
relative viability (NCI-H1915; first compound 0.8 µM): 0.89
relative viability (NCI-H1915; first compound 2.53 µM): 0.917
relative viability (NCI-H1915; first compound 8 µM): 0.909
relative viability (NCI-H1944; first compound 0.08 µM): 0.792
relative viability (NCI-H1944; first compound 0.253 µM): 0.755
relative viability (NCI-H1944; first compound 0.8 µM): 0.685
relative viability (NCI-H1944; first compound 8 µM): 0.682
relative viability (NCI-H1975; first compound 0.08 µM): 0.839
relative viability (NCI-H1975; first compound 0.253 µM): 1.04
relative viability (NCI-H1975; first compound 0.8 µM): 0.76
relative viability (NCI-H1975; first compound 2.53 µM): 0.879
relative viability (NCI-H1975; first compound 8 µM): 0.895
relative viability (NCI-H2085; first compound 0.08 µM): 0.802
relative viability (NCI-H2085; first compound 0.253 µM): 0.867
relative viability (NCI-H2085; first compound 0.8 µM): 0.679
relative viability (NCI-H2085; first compound 2.53 µM): 0.671
relative viability (NCI-H2085; first compound 8 µM): 0.769
relative viability (NCI-H2170; first compound 0.08 µM): 0.269
relative viability (NCI-H2170; first compound 0.253 µM): 0.276
relative viability (NCI-H2170; first compound 0.8 µM): 0.255
relative viability (NCI-H2170; first compound 2.53 µM): 0.216
relative viability (NCI-H2170; first compound 8 µM): 0.276
relative viability (NCI-H358; first compound 0.08 µM): 0.588
relative viability (NCI-H358; first compound 0.253 µM): 0.434
relative viability (NCI-H358; first compound 0.8 µM): 0.383
relative viability (NCI-H358; first compound 2.53 µM): 0.458
relative viability (NCI-H358; first compound 8 µM): 0.599
relative viability (NCI-H460; first compound 0.08 µM): 0.951
relative viability (NCI-H460; first compound 0.253 µM): 1.38
relative viability (NCI-H460; first compound 0.8 µM): 0.847
relative viability (NCI-H460; first compound 8 µM): 0.884
relative viability (SK-LU-1; first compound 0.08 µM): 0.795
relative viability (SK-LU-1; first compound 0.253 µM): 0.91
relative viability (SK-LU-1; first compound 0.8 µM): 0.843
relative viability (SK-LU-1; first compound 2.53 µM): 0.795
relative viability (SK-LU-1; first compound 8 µM): 0.577
relative viability (UMC-11; first compound 0.08 µM): 1.01
relative viability (UMC-11; first compound 0.253 µM): 1.08
relative viability (UMC-11; first compound 0.8 µM): 0.764
relative viability (UMC-11; first compound 2.53 µM): 0.795
relative viability (UMC-11; first compound 8 µM): 0.655

From the supplement of paper PMC10307832
